{"source": "patent US20230000088A1", "about": "“USE OF ALGINATES OLIGOMERS TO IMPROVE PLANT PROTECTION AGAINST PATHOGENS” (Université de Bourgogne, priority 2019, published 2023)", "test_system": "P. viticola", "assay": "Protection of greenhouse vine plants against downy mildew (sporulating leaf area, leaf disks, 6 dpi)", "format": "in vivo, Plasmopara viticola", "conditions": "A1 1 g/L, Pip 0.1 mM, alone or combined, FIG. 5", "protocol": "Grapevine (V. vinifera cv. Marselan) herbaceous cuttings were grown in individual pots (10×7×7 cm) containing a mixture of peat and perlite (4:1, vol/vol) in a greenhouse at 25±4 and 18±7° C. (day and night, respectively) until they developed 6-8 leaves. Artificial illumination was supplemented when the natural light was less than 200 μmol. m.^−2 s^−1 during the 16 h light period. Plants were watered with a fertilization solution (Topfert2 Plantin. France).\nAlginates A1, A2, A3 with a degree of polymerization (DP) of 491, 228, 355 respectively were used. They were prepared at 1, 2 and 4 g/L in ultrapure water and applied to both the upper and lower faces of leaves until the point of run-off using a manual sprayer. Plants were maintained in the greenhouse in the conditions described above. Ultrapure water was used as negative control and sprayed in the same manner. […]\nBriefly, 6 days post-inoculation (dpi), leaf disks were punched out and placed with the abaxial side uppermost, on a moist Whatman paper, in a closed plastic box. […] Disease intensity was assessed by measuring the leaf area covered by the pathogen sporulation using a “macro” developed for the image analysis Visilog 6.9 software (Noesis, France; Kim Khiook et al., 2013) and the disease reduction rate is calculated as follows: (1−(treated sporulating area/control sporulating area))×100. […]", "data": [{"smiles": "O=C(O)C1CCCCN1", "note": "(stereo not shown) [Pip, pipecolic acid]", "values": [{"measurement": "rate protection against P. viticola", "value": "around 35%"}]}]}
